Assay results: patent publication US20200157195A1, “14-3-3 Antagonists for the Prevention and Treatment of Arthritis” (THE UNIVERSITY OF BRITISH COLUMBIA, priority 2007, published 2020)
The star is where a group is joined. Biotin = O=C1N[C@H]2[C@H](CS[C@H]2CCCCC(=O)*)N1

How the values were obtained:
[1] = tested on: MMP-1 expression in dermal fibroblasts induced by extracellular 14-3-3 protein; test: MMP-1 expression in dermal fibroblasts treated with KLCCM after R-18 pull-down of 14-3-3 proteins; assay type: cell-based
Description: The KLCCM used in these experiments was taken from day 28 of cell transdifferentiation due to their high capacity of inducing MMP-1 expression in dermal fibroblasts (data not shown). […] As negative control, dermal fibroblasts treated with medium that was not conditioned (DMEM (49%), KSFM (49%) plus 2% FBS) were used (“Pull-down”−).

[2] = tested on: association of 14-3-3 proteins with Raf-1; conditions: Wang et al. 1999; cited from earlier work

Row | Substance | inhibition of induction of MMP-1 expression by extracellular 14-3-3 protein (in words) ([1]; FIG. 5 legend) | blocking the association of 14-3-3 proteins with Raf-1 [2] | reduction of MMP-1 expression ([1]; pre-treatment of KLCCM with biotinylated R-18 and avidin sepharose (pull-down), dermal fibroblasts, MMP-1/β-actin densitometry) [%]
1 | R-18: small peptide 14-3-3 antagonist (Wang et al. 1999) capable of blocking the association of 14-3-3 proteins with Raf-1 (Biotin-PHCVPRDLSWLDLEANMCLP-OH; not fully specified; cysteine pairing not given here) | inhibits induction of MMP-1 expression | capable of blocking the association of 14-3-3 proteins with Raf-1 | 
2 | Biotin-PHCVPRDLSWLDLEANMCLP-OH (cysteine pairing not given here) [biotinylated R-18] |  |  | 68.8
